Assay results: PubChem BioAssay (NCI)
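Assay format: 96-well plates, 48-hour exposure. TGI denotes the concentration required for complete inhibition of growth.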

What was measured:
Experiment in all cases: NCI-60 cell line screen, 48 h
ACHN renal = tested on: ACHN renal
CAKI-1 renal = tested on: CAKI-1 renal
CCRF-CEM leukemia = tested on: CCRF-CEM leukemia
HL-60(TB) leukemia = tested on: HL-60(TB) leukemia
HOP-62 NSCLC = tested on: HOP-62 NSCLC
HT29 colon = tested on: HT29 colon
M14 melanoma = tested on: M14 melanoma
MALME-3M melanoma = tested on: MALME-3M melanoma
MDA-MB-435 = tested on: MDA-MB-435
OVCAR-3 ovarian = tested on: OVCAR-3 ovarian
OVCAR-4 ovarian = tested on: OVCAR-4 ovarian
SF-268 CNS = tested on: SF-268 CNS
SK-MEL-2 melanoma = tested on: SK-MEL-2 melanoma
SK-MEL-28 melanoma = tested on: SK-MEL-28 melanoma
SK-MEL-5 melanoma = tested on: SK-MEL-5 melanoma
SK-OV-3 ovarian = tested on: SK-OV-3 ovarian
SNB-19 CNS = tested on: SNB-19 CNS
U251 CNS = tested on: U251 CNS
UACC-257 melanoma = tested on: UACC-257 melanoma
UACC-62 melanoma = tested on: UACC-62 melanoma

Row | SMILES | TGI (ACHN renal) | TGI (CAKI-1 renal) | TGI (CCRF-CEM leukemia) | TGI (HL-60(TB) leukemia) | TGI (HOP-62 NSCLC) | TGI (HT29 colon) | TGI (M14 melanoma) | TGI (MALME-3M melanoma) | TGI (MDA-MB-435) | TGI (OVCAR-3 ovarian) | TGI (OVCAR-4 ovarian) | TGI (SF-268 CNS) | TGI (SK-MEL-2 melanoma) | TGI (SK-MEL-28 melanoma) | TGI (SK-MEL-5 melanoma) | TGI (SK-OV-3 ovarian) | TGI (SNB-19 CNS) | TGI (U251 CNS) | TGI (UACC-257 melanoma) | TGI (UACC-62 melanoma)
1 | Cn1c(SCc2c[nH]c3ccccc23)nnc1-c1ccc(Cl)cc1Cl | 96.8 µM | > 100 µM | 45.4 µM | 25.6 µM | 21.4 µM | 35.5 µM | 38.1 µM | 45.8 µM | 12 µM | 35.1 µM | 34.2 µM | > 100 µM | 36.2 µM | > 100 µM | 27.5 µM | 59.4 µM | 61.7 µM | 38.1 µM | 56.1 µM | 39.3 µM
2 | O=S(=O)(c1ccc2ccccc2c1)N1CCN(S(=O)(=O)c2ccc3ccccc3c2)CC1 | > 100 µM | > 100 µM | > 100 µM | > 100 µM | > 100 µM | > 100 µM | > 100 µM | > 100 µM | > 100 µM | > 100 µM | > 100 µM | > 100 µM | > 100 µM | > 100 µM | > 100 µM | > 100 µM | > 100 µM | > 100 µM | > 100 µM | > 100 µM
3 | CC(C)=NNc1ncnc2nc[nH]c12 | > 100 µM | > 100 µM | > 100 µM | > 72.5 µM | > 76.7 µM | > 100 µM | > 100 µM | > 100 µM | > 100 µM | 40.1 µM | > 100 µM | > 100 µM | > 67.8 µM | > 100 µM | 48.8 µM | > 58 µM | > 100 µM | > 100 µM | > 100 µM | 20 µM
4 | CSC1(Cc2ccccn2)C(=O)Nc2cccc([N+](=O)[O-])c21 (stereo not given) | > 100 µM | > 100 µM | > 100 µM | > 100 µM | > 100 µM | > 100 µM | > 100 µM | > 100 µM | > 100 µM | > 100 µM | > 100 µM | > 100 µM | > 100 µM | > 100 µM | > 100 µM | > 100 µM | > 100 µM | > 100 µM | > 100 µM | > 100 µM
5 | Cc1cc(NS(=O)(=O)c2ccc(NC(=O)c3ccc4nc5ccccc5c(Nc5ccc(S(=O)(=O)Nc6cc(C)on6)cc5)c4c3)cc2)no1 | > 50 µM | > 50 µM | > 50 µM | > 50 µM | > 50 µM | > 50 µM | > 50 µM | > 50 µM | > 50 µM | > 50 µM | > 50 µM | > 50 µM | > 50 µM | > 50 µM | > 50 µM | > 50 µM | > 50 µM | > 50 µM | > 50 µM | > 50 µM
